According to patent US10065963B2 (Incyte Corporation, priority 2015, dated 2018):
Where a name gives a salt, the structure may show the parent alone. Read-outs that look alike come from different tables or passages of the source.

Experiments:
[1] = target: PI3Kδ (p110δ/p85α) Recombinant Human Protein (Homo sapiens (Human), UniProt O00329); experiment: PI3Kδ scintillation proximity assay; format: biochemical; conditions: 2 μM ATP, 20 μM PIP2
[2] = target: PI3Kγ (p110γ) Recombinant Human Protein (Homo sapiens (Human), UniProt P48736); experiment: PI3K-γ scintillation proximity assay; format: biochemical; conditions: 2 μM ATP, 20 μM PIP2
[3] = tested on: Phosphorylated Ribosomal Protein S6 (RPS6) in THP-1 cells; experiment: THP-1 RPS6 ELISA assay; format: cell-based, human; conditions: 10 nM MCP-1, read-out: PI3Kγ_THP1_RPS6_ELISA IC50
[4] = Homo sapiens, THP-1, THP-1 cells

PI3Kγ (p110γ) Recombinant Human Protein, sequence (P48736 whole entry): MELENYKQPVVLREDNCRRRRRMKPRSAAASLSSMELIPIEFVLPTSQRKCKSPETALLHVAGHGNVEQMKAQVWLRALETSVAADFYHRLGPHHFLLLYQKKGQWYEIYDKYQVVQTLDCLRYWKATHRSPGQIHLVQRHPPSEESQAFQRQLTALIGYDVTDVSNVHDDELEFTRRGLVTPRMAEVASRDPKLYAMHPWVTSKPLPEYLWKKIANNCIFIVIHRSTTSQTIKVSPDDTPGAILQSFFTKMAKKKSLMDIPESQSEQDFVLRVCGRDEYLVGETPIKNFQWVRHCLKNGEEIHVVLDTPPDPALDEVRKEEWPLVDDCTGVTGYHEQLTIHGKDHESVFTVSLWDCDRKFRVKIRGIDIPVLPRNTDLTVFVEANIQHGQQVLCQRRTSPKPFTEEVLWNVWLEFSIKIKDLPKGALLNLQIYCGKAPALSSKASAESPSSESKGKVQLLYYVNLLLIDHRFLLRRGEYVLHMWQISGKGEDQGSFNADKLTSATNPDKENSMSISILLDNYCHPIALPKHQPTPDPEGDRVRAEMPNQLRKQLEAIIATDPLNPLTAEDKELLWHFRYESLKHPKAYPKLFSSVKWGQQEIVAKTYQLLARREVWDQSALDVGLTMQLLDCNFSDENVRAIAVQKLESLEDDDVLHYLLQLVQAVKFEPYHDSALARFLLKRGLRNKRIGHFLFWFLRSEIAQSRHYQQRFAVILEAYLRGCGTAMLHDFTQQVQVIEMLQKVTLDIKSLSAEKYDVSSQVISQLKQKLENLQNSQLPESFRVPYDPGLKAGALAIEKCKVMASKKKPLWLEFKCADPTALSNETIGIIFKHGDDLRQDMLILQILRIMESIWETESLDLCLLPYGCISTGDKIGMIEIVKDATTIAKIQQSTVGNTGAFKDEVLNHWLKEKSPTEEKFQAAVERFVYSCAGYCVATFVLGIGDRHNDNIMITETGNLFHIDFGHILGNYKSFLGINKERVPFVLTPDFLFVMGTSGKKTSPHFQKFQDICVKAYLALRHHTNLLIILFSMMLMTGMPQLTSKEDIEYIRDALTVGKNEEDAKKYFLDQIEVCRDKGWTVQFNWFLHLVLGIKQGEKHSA
PI3Kδ (p110δ/p85α) Recombinant Human Protein, sequence (O00329 whole entry): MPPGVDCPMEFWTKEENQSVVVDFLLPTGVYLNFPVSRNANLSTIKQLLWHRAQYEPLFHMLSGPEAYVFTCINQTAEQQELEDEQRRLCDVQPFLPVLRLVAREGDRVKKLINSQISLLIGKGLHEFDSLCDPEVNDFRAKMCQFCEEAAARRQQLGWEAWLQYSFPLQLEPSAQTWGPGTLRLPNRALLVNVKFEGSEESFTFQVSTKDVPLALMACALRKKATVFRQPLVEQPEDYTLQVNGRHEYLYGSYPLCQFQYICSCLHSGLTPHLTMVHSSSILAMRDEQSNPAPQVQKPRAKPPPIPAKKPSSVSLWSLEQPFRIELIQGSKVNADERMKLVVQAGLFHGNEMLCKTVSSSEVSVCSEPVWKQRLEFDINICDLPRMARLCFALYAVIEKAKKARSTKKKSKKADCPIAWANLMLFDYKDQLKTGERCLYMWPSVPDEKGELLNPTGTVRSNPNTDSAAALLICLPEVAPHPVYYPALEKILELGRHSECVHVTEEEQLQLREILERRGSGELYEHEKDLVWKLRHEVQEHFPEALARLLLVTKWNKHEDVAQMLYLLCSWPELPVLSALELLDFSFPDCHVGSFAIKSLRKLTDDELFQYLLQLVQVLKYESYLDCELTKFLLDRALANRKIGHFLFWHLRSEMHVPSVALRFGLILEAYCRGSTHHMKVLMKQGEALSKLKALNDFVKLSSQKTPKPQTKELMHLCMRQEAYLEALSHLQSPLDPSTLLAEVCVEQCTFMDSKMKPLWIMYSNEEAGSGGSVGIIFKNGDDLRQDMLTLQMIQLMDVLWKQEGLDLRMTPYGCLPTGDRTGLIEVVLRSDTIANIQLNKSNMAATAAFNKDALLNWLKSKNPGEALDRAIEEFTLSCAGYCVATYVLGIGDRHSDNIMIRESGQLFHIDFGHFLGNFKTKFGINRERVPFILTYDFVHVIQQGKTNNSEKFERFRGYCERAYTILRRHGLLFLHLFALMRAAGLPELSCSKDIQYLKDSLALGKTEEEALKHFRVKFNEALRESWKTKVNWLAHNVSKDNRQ
PI3Kδ (p110δ/p85α) Recombinant Human Protein, sequence (P27986 whole entry partner): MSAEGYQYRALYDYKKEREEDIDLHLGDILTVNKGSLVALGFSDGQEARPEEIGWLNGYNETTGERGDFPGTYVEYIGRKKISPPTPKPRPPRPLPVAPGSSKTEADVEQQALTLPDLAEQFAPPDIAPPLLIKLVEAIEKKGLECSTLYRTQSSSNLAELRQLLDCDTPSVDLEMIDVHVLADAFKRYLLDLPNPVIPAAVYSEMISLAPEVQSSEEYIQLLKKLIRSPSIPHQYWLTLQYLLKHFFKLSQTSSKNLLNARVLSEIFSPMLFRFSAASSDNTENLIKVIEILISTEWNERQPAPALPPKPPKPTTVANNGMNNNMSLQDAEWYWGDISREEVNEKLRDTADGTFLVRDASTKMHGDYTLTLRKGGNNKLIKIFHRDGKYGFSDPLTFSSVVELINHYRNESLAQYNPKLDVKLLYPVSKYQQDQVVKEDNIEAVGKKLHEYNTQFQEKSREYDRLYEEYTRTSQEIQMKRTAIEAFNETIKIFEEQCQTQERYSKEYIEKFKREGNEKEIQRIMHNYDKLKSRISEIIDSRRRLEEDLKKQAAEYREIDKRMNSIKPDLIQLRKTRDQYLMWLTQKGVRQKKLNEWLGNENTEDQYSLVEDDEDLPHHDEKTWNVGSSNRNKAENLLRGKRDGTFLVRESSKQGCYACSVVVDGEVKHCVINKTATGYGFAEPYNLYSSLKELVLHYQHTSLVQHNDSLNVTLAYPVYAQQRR

SMILES | IC50 [1] [nM] | IC50 [2] [nM] | IC50 [3, 4] [nM] | IC50 ([3]; THP-1 cells) [nM]
CC(NC(=O)c1c(N)nn2cccnc12)c1cc(Cl)c2cn[nH]c2c1OCCO (stereo not drawn) [Example 84, 2-Amino-N-(1-(4-chloro-7-(2-hydroxyethoxy)-1H-indazol-6-yl)ethyl)pyrazolo[1,5-a]pyrimidine-3-carboxamide trifluoroacetate] | < 100 | < 100 | < 500 | –
CCOc1c(C(C)NC(=O)c2c(N)nn3cccnc23)cc(Cl)c2c(C#N)n[nH]c12 (stereo not drawn) [Example 86, 2-Amino-N-(1-(4-chloro-3-cyano-7-ethoxy-1H-indazol-6-yl)ethyl)pyrazolo[1,5-a]pyrimidine-3-carboxamide trifluoroacetate] | < 500 | < 100 | > 1000 | –
CC(NC(=O)c1c(N)nn2cccnc12)c1cc(Cl)c2cncn2c1N1CCC(C)(C#N)CC1 (stereo not drawn) [Example 88, 2-Amino-N-(1-(8-chloro-5-(4-cyano-4-methylpiperidin-1-yl)imidazo[1,5-a]pyridin-6-yl)ethyl)pyrazolo[1,5-a]pyrimidine-3-carboxamide trifluoroacetate] | < 100 | < 100 | < 500 | –
CC(NC(=O)c1c(N)nn2cccnc12)c1cc(Cl)c2cncn2c1N1CCC(O)(C(F)(F)F)CC1 (stereo not drawn) [Example 89, 2-Amino-N-(1-(8-chloro-5-(4-hydroxy-4-(trifluoromethyl)piperidin-1-yl)imidazo[1,5-a]pyridin-6-yl)ethyl)pyrazolo[1,5-a]pyrimidine-3-carboxamide trifluroacetate] | < 500 | < 100 | – | < 500
CC(NC(=O)c1c(N)nn2cccnc12)c1cc(Cl)c2cn[nH]c2c1N1CCS(=O)(=O)CC1 (stereo not drawn) [Example 94, 2-Amino-N-{1-[4-chloro-7-(1,1-dioxidothiomorpholin-4-yl)-2H-indazol-6-yl]ethyl}pyrazolo[1,5-a]pyrimidine-3-carboxamide trifluoroacetate] | < 500 | < 100 | < 500 | –
CC(=O)N[C@H]1CCN(c2c(C(C)NC(=O)c3c(N)nn4cccnc34)cc(Cl)c3cn[nH]c23)C1 (stereo partly drawn) [Example 95, N-(1-{7-[(3S)-3-(Acetylamino)pyrrolidin-1-yl]-4-chloro-2H-indazol-6-yl}ethyl)-2-aminopyrazolo[1,5-a]pyrimidine-3-carboxamide trifluoroacetate] | < 100 | < 100 | < 1000 | –
CC(NC(=O)c1c(N)nn2cccnc12)c1cc(Cl)c2cn[nH]c2c1N1CC[C@H](NS(C)(=O)=O)C1 (stereo partly drawn) [Example 96A, 2-Amino-N-[1-(4-chloro-7-{(3S)-3-[(methylsulfonyl)amino]pyrrolidin-1-yl}-2H-indazol-6-yl)ethyl]pyrazolo[1,5-a]pyrimidine-3-carboxamide trifluoroacetate] | < 100 | < 100 | < 1000 | –
CC(NC(=O)c1c(N)nn2cccnc12)c1cc(Cl)c2cn[nH]c2c1N1CC[C@@H](NS(C)(=O)=O)C1 (stereo partly drawn) [Example 96B, 2-Amino-N-[1-(4-chloro-7-{(3R)-3-[(methylsulfonyl)amino]pyrrolidin-1-yl}-2H-indazol-6-yl)ethyl]pyrazolo[1,5-a]pyrimidine-3-carboxamide trifluoroacetate] | < 100 | < 100 | > 1000 | –
CCOC(=O)C1CC=C(c2c(C(C)NC(=O)c3c(N)nn4cccnc34)cc(Cl)c3cn[nH]c23)CC1 (stereo not drawn) [Example 97, Ethyl 4-[6-(1-{[(2-aminopyrazolo[1,5-a]pyrimidin-3-yl)carbonyl]amino}ethyl)-4-chloro-2H-indazol-7-yl]cyclohex-3-ene-1-carboxylate bistrifluoroacetate] | < 500 | < 100 | < 1000 | –
CC(NC(=O)c1c(N)nn2cccnc12)c1cc(Cl)c2cn[nH]c2c1C1=CCC(C#N)CC1 (stereo not drawn) [Example 101, 2-Amino-N-{1-[4-chloro-7-(4-cyanocyclohex-1-en-1-yl)-2H-indazol-6-yl]ethyl}pyrazolo[1,5-a]pyrimidine-3-carboxamide trifluoroacetate] | < 500 | < 100 | < 500 | –
CC(=O)N[C@H]1CCCN(c2c(C(C)NC(=O)c3c(N)nn4cccnc34)cc(Cl)c3cn[nH]c23)C1 (stereo partly drawn) [Example 104, N-(1-(7-((S)-3-Acetamidopiperidin-1-yl)-4-chloro-1H-indazol-6-yl)ethyl)-2-aminopyrazolo[1,5-a]pyrimidine-3-carboxamide trifluoroacetate] | < 100 | < 100 | < 500 | –
CCOC(=O)C1CCN(c2c(C(C)NC(=O)c3c(N)nn4cccnc34)cc(Cl)c3cn[nH]c23)CC1 (stereo not drawn) [Example 106, Ethyl 1-[6-(1-{[(2-aminopyrazolo[1,5-a]pyrimidin-3-yl)carbonyl]amino}ethyl)-4-chloro-2H-indazol-7-yl]piperidine-4-carboxylate trifluoroacetate] | < 500 | < 100 | > 1000 | –
CNC(=O)C1CCN(c2c(C(C)NC(=O)c3c(N)nn4cccnc34)cc(Cl)c3cn[nH]c23)CC1 (stereo not drawn) [Example 107, 2-Amino-N-[1-(4-chloro-7-{4-[(methylamino)carbonyl]piperidin-1-yl}-2H-indazol-6-yl)ethyl]pyrazolo[1,5-a]pyrimidine-3-carboxamide trifluoroacetate] | < 500 | < 100 | < 500 | –
CC(NC(=O)c1c(N)nn2cccnc12)c1cc(Cl)c2ccnn2c1N1CCCS(=O)(=O)CC1 (stereo not drawn) [Example 109, 2-Amino-N-{1-[4-chloro-7-(1,1-dioxido-1,4-thiazepan-4-yl)pyrazolo[1,5-a]pyridin-6-yl]ethyl}pyrazolo[1,5-a]pyrimidine-3-carboxamide trifluoroacetate] | < 100 | < 100 | < 500 | –
CC(NC(=O)c1c(N)nn2cccnc12)c1cc(Cl)c2ccnn2c1N1CCS(=O)(=O)C(C)(C)C1 (stereo not drawn) [Example 111, 2-Amino-N-{1-[4-chloro-7-(2,2-dimethyl-1,1-dioxidothiomorpholin-4-yl)pyrazolo[1,5-a]pyridin-6-yl]ethyl}pyrazolo[1,5-a]pyrimidine-3-carboxamide trifluoroacetate] | < 100 | < 100 | < 500 | –

Results, then the molecule that gave them:

IC50 [1] [nM] | IC50 [2] [nM] | IC50 [3, 4] [nM] | IC50 ([3]; THP-1 cells) [nM] | SMILES
< 100 | < 100 | < 500 | – | CC(NC(=O)c1c(N)nn2cccnc12)c1cc(Cl)c2cn[nH]c2c1OCC(O)CO (stereo not drawn) [Example 85, 2-Amino-N-(1-(4-chloro-7-(2,3-dihydroxypropoxy)-1H-indazol-6-yl)ethyl)pyrazolo[1,5-a]pyrimidine-3-carboxamide trifluoroacetate]
< 500 | < 100 | < 500 | – | CC(NC(=O)c1c(N)nn2cccnc12)c1cc(Cl)c2cncn2c1N1CCC(C)(O)CC1 (stereo not drawn) [Example 87, 2-Amino-N-(1-(8-chloro-5-(4-hydroxy-4-methylpiperidin-1-yl)imidazo[1,5-a]pyridin-6-yl)ethyl)pyrazolo[1,5-a]pyrimidine-3-carboxamide trifluoroacetate]
< 100 | < 100 | < 1000 | – | COC1CCN(c2c(C(C)NC(=O)c3c(N)nn4cccnc34)cc(Cl)c3cn[nH]c23)C1 (stereo not drawn) [Example 91, 2-Amino-N-{1-[4-chloro-7-(3-methoxypyrrolidin-1-yl)-2H-indazol-6-yl]ethyl}pyrazolo[1,5-a]pyrimidine-3-carboxamide bis(trifluoroacetate)]
< 500 | < 100 | < 500 | – | CNS(=O)(=O)C1CCN(c2c(C(C)NC(=O)c3c(N)nn4cccnc34)cc(Cl)c3cn[nH]c23)C1 (stereo not drawn) [Example 92, 2-Amino-N-[1-(4-chloro-7-{3-[(methylamino)sulfonyl)pyrrolidin-1-yl}-2H-indazol-6-yl)ethyl]pyrazolo[1,5-a]pyrimidine-3-carboxamide]
< 2000 | < 100 | > 1000 | – | CC(NC(=O)c1c(N)nn2cccnc12)c1cc(Cl)c2cn[nH]c2c1N1CCC(S(=O)(=O)N(C)C)CC1 (stereo not drawn) [Example 93, 2-Amino-N-[1-(4-chloro-7-{4-[(dimethylamino)sulfonyl]piperidin-1-yl}-2H-indazol-6-yl)ethyl]pyrazolo[1,5-a]pyrimidine-3-carboxamide]
< 500 | < 100 | > 1000 | – | COC1CC=C(c2c(C(C)NC(=O)c3c(N)nn4cccnc34)cc(Cl)c3cn[nH]c23)CC1 (stereo not drawn) [Example 100, 2-Amino-N-{1-[4-chloro-7-(4-methoxycyclohex-1-en-1-yl)-2H-indazol-6-yl]ethyl}pyrazolo[1,5-a]pyrimidine-3-carboxamide trifluoroacetate]
< 500 | < 100 | > 1000 | – | COC(=O)C1CCN(c2c(C(C)NC(=O)c3c(N)nn4cccnc34)cc(Cl)c3cn[nH]c23)C1 (stereo not drawn) [Example 102, Methyl 1-[6-(1-{[(2-aminopyrazolo[1,5-a]pyrimidin-3-yl)carbonyl]amino}ethyl)-4-chloro-2H-indazol-7-yl]pyrrolidine-3-carboxylate trifluoroacetate]
< 100 | < 100 | < 500 | – | CC(NC(=O)c1c(N)nn2cccnc12)c1cc(Cl)c2cn[nH]c2c1N1CCC[C@H](NS(C)(=O)=O)C1 (stereo partly drawn) [Example 105, 2-Amino-N-[1-(4-chloro-7-{(3S)-3-[(methylsulfonyl)amino]piperidin-1-yl}-2H-indazol-6-yl)ethyl]pyrazolo[1,5-a]pyrimidine-3-carboxamide trifluoroacetate]
< 100 | < 100 | < 500 | – | CC(NC(=O)c1c(N)nn2cccnc12)c1cc(Cl)c2ccnn2c1N1CCNS(=O)(=O)CC1 (stereo not drawn) [Example 110, 2-Amino-N-{1-[4-chloro-7-(1,1-dioxido-1,2,5-thiadiazepan-5-yl)pyrazolo[1,5-a]pyridin-6-yl]ethyl}pyrazolo[1,5-a]pyrimidine-3-carboxamide trifluoroacetate]
